Source: US8883745B2, “C—glycolipids with enhanced Th-1 profile” (New York University, priority 2006, dated 2014)

Tests used:
IL-12 = IL-12 levels in sera upon i.v. glycolipid administration to C57BL/6 mice (ELISA); assay type: in vivo; set-up: IL-12 levels, test 1 / IL-12 levels, test 2 / IL-12 levels, average / IL-12 levels, Total: unit not given here; settings: for IL-12/IL-4 (B6): C57BL/6, ratio calculated from Tables 1-6; for IL-12 levels, average / IL-12 levels, test 1 / IL-12 levels, test 2 / IL-12 levels, Total: C57BL/6, serum; for IL-12 levels, Total: total over hours 0-72
Protocol: (§1) Five- to six-week-old female C57BL/6 mice and BALB/c mice were purchased from Taconic. Each glycolipid was stored at 1 mg/ml in 100% DMSO. Mice were injected intravenously with 1 μg of each glyocolipid diluted in 200 μL sterile phosphate buffered saline (PBS). At indicated time points, sera were collected from each animal, and concentrations of IFN-γ, IL-4, and IL-12 in the sera were evaluated by enzyme-linked immunosorbent assay (ELISA). Serum concentrations of IFN-γ, IL-4, and IL-12 were evaluated using an ELISA kit (eBioscience, San Diego, Calif.). Briefly, 96 well flat-bottom ELISA plates (NUNC) were coated with capture antibody according to the manufacture's recommendation and incubated overnight at 4° C. The plates were washed with PBS+0.05% Tween 20 (PBS-T), then incubated with manufacturer provided blocking solution for 1 hr at room temperature to block non-specific binding sites. After washing with PBS-T, sera diluted 1:10 was added to the wells and incubated for 2 hrs at room temperature. Plates were then incubated at room temperature for 1 hr with biotintylated detection antibody, washed, incubated with avidin conjugated to horse radish peroxidase (HRP) for 30 min at room temperature, washed, and finally incubated with tetramethylbenzidine substrate solution in the dark for 10 minutes at room temperature. The antibodies, avidin-HRP, and substrate solution were all diluted according to the manufacture's recommendation. Reactions were stopped with 2.0N sulfuric acid and the cytokine concentration in each well was determined by comparing the absorbance at 450 nm in each well to known standards. The levels of Th1- and Th2-type cytokines were determined in two different genetic backgrounds, i.e., in C57BL/6 mice and BALB/c mice. The following compounds were administered: A=compound (A-1 trans-conformer), B=compound (A-2), C=compound (A-3), D=compound (A-4), E=compound (A-5), Z=control (PBS alone), CRONY=α-C-GalCer, KRN=α-GalCer, GCK109 (A-1 trans-conformer), GCK151 (A-1 cis-conformer), GCK152 (A-7). The levels of cytokines were measured at 0, 2, 6, 12, 24, 48, and 72 hours after the compound administration. The levels of Th1-type cytokines IFN-γ and IL-12 are summarized in FIGS. 2A-C and 3A-C, respectively. Table 7 provides IFN-γ/IL-4 and IL-12/IL-4 ratios for various compounds, which can be used as indicators of their ability to selectively stimulate Th1-type immune responses.

IL-4 = IL-4 levels in sera upon i.v. glycolipid administration to C57BL/6 mice (ELISA); assay type: in vivo; set-up: unit not given here; settings: for IL-4 level, Total: total over hours 0-72
Protocol: as §1

CCCCCCCCCCCCCCCCC/C=C/CCCCCCCCC(=O)N[C@@H](CC[C@H]1O[C@H](CO)[C@H](O)[C@H](O)[C@H]1O)[C@H](O)[C@H](O)CCCCCCCCCCCCCC [A-3]
IL-12/IL-4 (B6) (IL-12): 1.5 | IL-12 levels, average (IL-12; hour 0): 5 | IL-12 levels, test 1 (IL-12; hour 0): 5 | IL-12 levels, test 2 (IL-12; hour 0): 5 | IL-12 levels, average (IL-12; hour 2): 75 | IL-12 levels, test 1 (IL-12; hour 2): 79 | IL-12 levels, test 2 (IL-12; hour 2): 71 | IL-12 levels, average (IL-12; hour 6): 442 | IL-12 levels, test 1 (IL-12; hour 6): 451 | IL-12 levels, test 2 (IL-12; hour 6): 433 | IL-12 levels, average (IL-12; hour 12): 608 | IL-12 levels, test 1 (IL-12; hour 12): 449 | IL-12 levels, test 2 (IL-12; hour 12): 767 | IL-12 levels, average (IL-12; hour 24): 89.5 | IL-12 levels, test 1 (IL-12; hour 24): 77 | IL-12 levels, test 2 (IL-12; hour 24): 102 | IL-12 levels, average (IL-12; hour 48): 99 | IL-12 levels, test 1 (IL-12; hour 48): 67 | IL-12 levels, test 2 (IL-12; hour 48): 131 | IL-12 levels, average (IL-12; hour 72): 80.5 | IL-12 levels, test 1 (IL-12; hour 72): 53 | IL-12 levels, test 2 (IL-12; hour 72): 108 | IL-12 levels, Total (IL-12): 1400 | IL-4 level, average (IL-4; hour 0): 46 | IL-4 level, test 1 (IL-4; hour 0): 46 | IL-4 level, test 2 (IL-4; hour 0): 46 | IL-4 level, average (IL-4; hour 2): 576 | IL-4 level, test 1 (IL-4; hour 2): 398 | IL-4 level, test 2 (IL-4; hour 2): 754 | IL-4 level, average (IL-4; hour 6): 72.5 | IL-4 level, test 1 (IL-4; hour 6): 59 | IL-4 level, test 2 (IL-4; hour 6): 86 | IL-4 level, average (IL-4; hour 12): 49 | IL-4 level, test 1 (IL-4; hour 12): 43 | IL-4 level, test 2 (IL-4; hour 12): 55 | IL-4 level, average (IL-4; hour 24): 57.5 | IL-4 level, test 1 (IL-4; hour 24): 49 | IL-4 level, test 2 (IL-4; hour 24): 66 | IL-4 level, average (IL-4; hour 48): 54.5 | IL-4 level, test 1 (IL-4; hour 48): 54 | IL-4 level, test 2 (IL-4; hour 48): 55 | IL-4 level, average (IL-4; hour 72): 58 | IL-4 level, test 1 (IL-4; hour 72): 54 | IL-4 level, test 2 (IL-4; hour 72): 62 | IL-4 level, Total (IL-4): 915

CCCCCCCCCCCCCC[C@@H](O)[C@@H](O)[C@H](CC[C@H]1O[C@H](CO)[C@H](O)[C@H](O)[C@H]1O)NC(=O)CCCCCCCCCCCCCCCCCCCOCCCCCC [A-4]
IL-12/IL-4 (B6) (IL-12): 1.3 | IL-12 levels, average (IL-12; hour 0): 5 | IL-12 levels, test 1 (IL-12; hour 0): 5 | IL-12 levels, test 2 (IL-12; hour 0): 5 | IL-12 levels, average (IL-12; hour 2): 458.5 | IL-12 levels, test 1 (IL-12; hour 2): 490 | IL-12 levels, test 2 (IL-12; hour 2): 427 | IL-12 levels, average (IL-12; hour 6): 685.5 | IL-12 levels, test 1 (IL-12; hour 6): 740 | IL-12 levels, test 2 (IL-12; hour 6): 631 | IL-12 levels, average (IL-12; hour 12): 124 | IL-12 levels, test 1 (IL-12; hour 12): 18 | IL-12 levels, test 2 (IL-12; hour 12): 230 | IL-12 levels, average (IL-12; hour 24): 0 | IL-12 levels, test 1 (IL-12; hour 24): 0 | IL-12 levels, test 2 (IL-12; hour 24): 0 | IL-12 levels, average (IL-12; hour 48): 0 | IL-12 levels, test 1 (IL-12; hour 48): 0 | IL-12 levels, test 2 (IL-12; hour 48): 0 | IL-12 levels, average (IL-12; hour 72): 0 | IL-12 levels, test 1 (IL-12; hour 72): 0 | IL-12 levels, test 2 (IL-12; hour 72): 0 | IL-12 levels, Total (IL-12): 1274 | IL-4 level, average (IL-4; hour 0): 46 | IL-4 level, test 1 (IL-4; hour 0): 46 | IL-4 level, test 2 (IL-4; hour 0): 46 | IL-4 level, average (IL-4; hour 2): 696.5 | IL-4 level, test 1 (IL-4; hour 2): 627 | IL-4 level, test 2 (IL-4; hour 2): 766 | IL-4 level, average (IL-4; hour 6): 126 | IL-4 level, test 1 (IL-4; hour 6): 83 | IL-4 level, test 2 (IL-4; hour 6): 169 | IL-4 level, average (IL-4; hour 12): 43.5 | IL-4 level, test 1 (IL-4; hour 12): 40 | IL-4 level, test 2 (IL-4; hour 12): 47 | IL-4 level, average (IL-4; hour 24): 29.5 | IL-4 level, test 1 (IL-4; hour 24): 29 | IL-4 level, test 2 (IL-4; hour 24): 30 | IL-4 level, average (IL-4; hour 48): 28.5 | IL-4 level, test 1 (IL-4; hour 48): 39 | IL-4 level, test 2 (IL-4; hour 48): 18 | IL-4 level, average (IL-4; hour 72): 41.5 | IL-4 level, test 1 (IL-4; hour 72): 54 | IL-4 level, test 2 (IL-4; hour 72): 29 | IL-4 level, Total (IL-4): 1014
